Reference: US10138225B2 (Achillion Pharmaceuticals, Inc., priority 2015, dated 2018)
Where two headings read alike, the source gives them in different places.

Molecular target: T1, Human Factor D (Homo sapiens, UniProt P00746)
T1 construct: purified from human serum; purchased Complement Technology, Inc; host or cells: human serum (natural protein, not recombinant)
Assay: Human Factor D Assay
Assay type: biochemical
Experimental: Human Factor D (purified from human serum, Complement Technology, Inc.) at 80 nM final concentration is incubated with test compound at various concentrations for 5 minutes at room temperature in 50 mM Tris, 1M NaCl, pH 7.5. A synthetic substrate Z-L-Lys-SBzl and DTNB (Ellman's reagent) are added to final concentrations of 100 μM each. Absorbance at 405 nm (A405) is recorded at 30 second intervals for 30 minutes using a microplate spectrophotometer. IC50 values are calculated by nonlinear regression of complement Factor D reaction rates as a function of test compound concentration.

[1] = Table 1, Factor D 80 nM, substrate Z-L-Lys-SBzl, read-out: IC50
[2] = Table 2, Factor D 80 nM, substrate Z-L-Lys-SBzl, read-out: IC50
[3] = Table 3, factor D inhibition assay, read-out: IC50 (Stars)

T1 sequence (P00746 26-253): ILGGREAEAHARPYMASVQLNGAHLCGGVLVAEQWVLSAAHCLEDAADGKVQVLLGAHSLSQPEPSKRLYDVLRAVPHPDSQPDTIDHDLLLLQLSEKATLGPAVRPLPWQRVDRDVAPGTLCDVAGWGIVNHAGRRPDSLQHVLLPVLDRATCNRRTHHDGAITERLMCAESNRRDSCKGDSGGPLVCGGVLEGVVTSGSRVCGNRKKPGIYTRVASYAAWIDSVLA

IC50 [2] [nM]	IC50 [3] [nM]	SMILES	other results
–	–	CC(=O)c1cn(CC(=O)N2C[C@H](F)C[C@H]2C(=O)NCc2cccc(Cl)c2F)c2cc(C(=O)NCC3CCN(C(=O)OC(C)(C)C)C3)ccc12 (stereo partly drawn) [Compound 50, tert-butyl 3-((3-acetyl-1-(2-((2S,4R)-2-(3-chloro-2-fluorobenzylcarbamoyl)-4-fluoropyrrolidin-1-yl)-2-oxoethyl)-1H-indole-6-carboxamido)methyl) pyrrolidine-1-carboxylate]	IC50 [1]: < 1000 nM
–	–	COC(=O)C1CCN(C(=O)c2ccc3c(C(C)=O)cn(CC(=O)N4C[C@H](F)C[C@H]4C(=O)NCc4cccc(Cl)c4F)c3c2)C1 (stereo partly drawn) [Compound 51, methyl 1-(3-acetyl-1-(2-((2S,4R)-2-(3-chloro-2-fluorobenzylcarbamoyl)-4-fluoropyrrolidin-1-yl)-2-oxoethyl)-1H-indole-6-carbonyl)pyrrolidine-3-carboxylate]	IC50 [1]: < 1000 nM
–	–	CC(=O)c1cn(CC(=O)N2C[C@H](F)C[C@H]2C(=O)NCc2cccc(Cl)c2F)c2cc(C(=O)N3CCC(C(=O)O)C3)ccc12 (stereo partly drawn) [Compound 52, 1-(3-acetyl-1-(2-((2S,4R)-2-(3-chloro-2-fluorobenzylcarbamoyl)-4-fluoropyrrolidin-1-yl)-2-oxoethyl)-1H-indole-6-carbonyl)pyrrolidine-3-carboxylic acid]	IC50 [1]: < 1000 nM
–	–	CC(=O)c1cn(CC(=O)N2C[C@H](F)C[C@H]2C(=O)NCc2cccc(Cl)c2F)c2cc(C(=O)NS(=O)(=O)c3ccccc3)ccc12 [Compound 53, 3-acetyl-1-(2-((2S,4R)-2-(3-chloro-2-fluorobenzylcarbamoyl)-4-fluoropyrrolidin-1-yl)-2-oxoethyl)-N-(phenylsulfonyl)-1H-indole-6-carboxamide]	IC50 [1]: < 1000 nM
–	–	NC(=O)c1nn(CC(=O)N2C[C@H](F)C[C@H]2C(=O)Nc2cccc(-c3ccccc3Cl)c2F)c2cc(C(=O)NS(=O)(=O)C3CC3)ccc12 [Compound 54]	IC50 [1]: < 1000 nM
< 1000	–	CC(C)(C)C(=O)Nc1nc2c(s1)c(C(N)=O)nn2CC(=O)N1C[C@H](F)C[C@H]1C(=O)Nc1cccc(-c2ccccc2Cl)c1F [Compound 55, 1-(2-((2S,4R)-2-(2′-chloro-2-fluorobiphenyl-3-ylcarbamoyl)-4-fluoropyrrolidin-1-yl)-2-oxoethyl)-5-pivalamido-1H-pyrazolo[3,4-d]thiazole-3-carboxamide]	–
< 1000	–	CC(C)(C)C(=O)Nc1nc2c(s1)c(C(N)=O)nn2CC(=O)N1C[C@H](F)C[C@H]1C(=O)NCc1cccc(Cl)c1F [Compound 56, 1-(2-((2S,4R)-2-(3-chloro-2-fluorobenzylcarbamoyl)-4-fluoropyrrolidin-1-yl)-2-oxoethyl)-5-pivalamido-1H-pyrazolo[3,4-d]thiazole-3-carboxamide]	–
< 1000	–	NC(=O)c1nn(CC(=O)N2C[C@H](F)C[C@H]2C(=O)Nc2cccc(-c3ccccc3Cl)c2F)c2cc(C(=O)NC3CC3)sc12 [Compound 57, 1-(2-((2S,4R)-2-(2′-chloro-2-fluorobiphenyl-3-ylcarbamoyl)-4-fluoropyrrolidin-1-yl)-2-oxoethyl)-N5-cyclopropyl-1H-thieno[3,2-c]pyrazole-3,5-dicarboxamide]	–
< 1000	–	CNC(=O)c1cc2c(s1)c(C(N)=O)nn2CC(=O)N1C[C@H](F)C[C@H]1C(=O)Nc1cccc(-c2ccccc2Cl)c1F [Compound 58]	–
< 1000	–	NC(=O)c1nn(CC(=O)N2C[C@H](F)C[C@H]2C(=O)Nc2cccc(-c3ccccc3Cl)c2F)c2cc(C(=O)N3CCOCC3)sc12 [Compound 59, 1-(2-((2S,4R)-2-(2′-chloro-2-fluorobiphenyl-3-ylcarbamoyl)-4-fluoropyrrolidin-1-yl)-2-oxoethyl)-5-(morpholine-4-carbonyl)-1H-thieno[3,2-c]pyrazole-3-carboxamide]	–
< 1000	–	NC(=O)c1nn(CC(=O)N2C[C@H](F)C[C@H]2C(=O)Nc2cccc(-c3ccccc3Cl)c2F)c2cc(C(=O)N3CCCC3)sc12 [Compound 60, 1-(2-((2S,4R)-2-(2′-chloro-2-fluorobiphenyl-3-ylcarbamoyl)-4-fluoropyrrolidin-1-yl)-2-oxoethyl)-5-(pyrrolidine-1-carbonyl)-1H-thieno[3,2-c]pyrazole-3-carboxamide]	–
< 1000	–	NC(=O)c1nn(CC(=O)N2C[C@H](F)C[C@H]2C(=O)Nc2cccc(-c3ccccc3Cl)c2F)c2cc(C(=O)NC3CCCC3)sc12 [Compound 61, 1-(2-((2S,4R)-2-(2′-chloro-2-fluorobiphenyl-3-ylcarbamoyl)-4-fluoropyrrolidin-1-yl)-2-oxoethyl)-N5-cyclopentyl-1H-thieno[3,2-c]pyrazole-3,5-dicarboxamide]	–
< 1000	–	CN(C)C(=O)c1cc2c(s1)c(C(N)=O)nn2CC(=O)N1C[C@H](F)C[C@H]1C(=O)Nc1cccc(-c2ccccc2Cl)c1F [Compound 62, 1-(2-((2S,4R)-2-(2′-chloro-2-fluorobiphenyl-3-ylcarbamoyl)-4-fluoropyrrolidin-1-yl)-2-oxoethyl)-N5,N5-dimethyl-1H-thieno[3,2-c]pyrazole-3,5-dicarboxamide]	–
–	> 10000	CC(=O)c1cn(CC(=O)N2C[C@H](F)C[C@H]2CCNS(=O)(=O)c2ccccc2)c2ccc(C(=O)NS(=O)(=O)C3CC3)cc12 [Compound 174, 3-acetyl-N-(cyclopropylsulfonyl)-1-(2-((2R,4R)-4-fluoro-2-(2-(phenylsulfonylamido)ethyl)pyrrolidin-1-yl)-2-oxoethyl)-1H-indole-5-carboxamide]	–
–	1000 to 10000	CC(=O)c1cn(CC(=O)N2C[C@H](F)C[C@H]2C(=O)NCc2ccccc2)c2ccc(C(=O)NS(=O)(=O)C3CC3)cc12 [Compound 180, 3-acetyl-1-(2-((2S,4R)-2-(benzylcarbamoyl)-4-fluoropyrrolidin-1-yl)-2-oxoethyl)-N-(cyclopropylsulfonyl)-1H-indole-5-carboxamide]	–
–	> 10000	CC(=O)c1cn(CC(=O)N2C[C@H](F)C[C@H]2C(=O)NCCc2ccccc2)c2ccc(C(=O)NS(=O)(=O)C3CC3)cc12 [Compound 185, 3-acetyl-N-(cyclopropylsulfonyl)-1-(2-((2S,4R)-4-fluoro-2-(phenethylcarbamoyl)pyrrolidin-1-yl)-2-oxoethyl)-1H-indole-5-carboxamide]	–
–	1000 to 10000	CC(=O)c1cn(CC(=O)N2C[C@H](F)C[C@H]2C(=O)NCCCc2ccccc2)c2ccc(C(=O)NS(=O)(=O)C3CC3)cc12 [Compound 190, 3-acetyl-N-(cyclopropylsulfonyl)-1-(2-((2S,4R)-4-fluoro-2-((3-phenylpropyl)carbamoyl)pyrrolidin-1-yl)-2-oxoethyl)-1H-indole-5-carboxamide]	–
–	> 10000	CC(=O)c1cn(CC(=O)N2C[C@H](F)C[C@H]2C(=O)NCCCCc2ccccc2)c2ccc(C(=O)NS(=O)(=O)C3CC3)cc12 [Compound 195, 3-acetyl-N-(cyclopropylsulfonyl)-1-(2-((2S,4R)-4-fluoro-2-((4-phenylbutyl)carbamoyl)pyrrolidin-1-yl)-2-oxoethyl)-1H-indole-5-carboxamide]	–
–	< 1000	CC(=O)c1cn(CC(=O)N2C[C@H](F)C[C@H]2C(=O)NCc2ccccc2)c2ccc(NC(=O)N3CCCC(F)(F)C3)cc12 [Compound 196, N-(3-acetyl-1-(2-((2S,4R)-2-(benzocarbamoyl)-4-fluoropyrrolidin-1-yl)-2-oxoethyl)-1H-indol-5-yl)-3,3-difluoropiperidine-1-carboxamide]	–
–	< 1000	CC(=O)c1cn(CC(=O)N2C[C@H](F)C[C@H]2C(=O)NCCc2ccccc2)c2ccc(NC(=O)N3CCCC(F)(F)C3)cc12 [Compound 197, N-(3-acetyl-1-(2-((2S,4R)-4-fluoro-2-(phenethylcarbamoyl)pyrrolidin-1-yl)-2-oxoethyl)-1H-indol-5-yl)-3,3-difluoropiperidine-1-carboxamide]	–
–	< 1000	CC(=O)c1cn(CC(=O)N2C[C@H](F)C[C@H]2C(=O)NCCCc2ccccc2)c2ccc(NC(=O)N3CCCC(F)(F)C3)cc12 [Compound 198, N-(3-acetyl-1-(2-((2S,4R)-4-fluoro-2-((3-phenylpropyl)carbamoyl)pyrrolidin-1-yl)-2-oxoethyl)-1H-indol-5-yl)-3,3-difluoropiperidine-1-carboxamide]	–
–	< 1000	CC(=O)c1cn(CC(=O)N2C[C@H](F)C[C@H]2C(=O)NCCCCc2ccccc2)c2ccc(NC(=O)N3CCCC(F)(F)C3)cc12 [Compound 199, N-(3-acetyl-1-(2-((2S,4R)-4-fluoro-2-((4-phenylbutyl)carbamoyl)pyrrolidin-1-yl)-2-oxoethyl)-1H-indol-5-yl)-3,3-difluoropiperidine-1-carboxamide]	–
–	1000 to 10000	CC(=O)c1cn(CC(=O)N2C[C@H](F)C[C@H]2CCNS(=O)(=O)c2ccccc2)c2ccc(NC(=O)N3CCCC(F)(F)C3)cc12 [Compound 201, N-(3-acetyl-1-(2-((2R,4R)-4-fluoro-2-(2-(phenylsulfonamido)ethyl)pyrrolidin-1-yl)-2-oxoethyl)-1H-indol-5-yl)-3,3-difluoro-piperidine-1-carboxamide]	–
–	> 10000	CC(=O)c1cn(CC(=O)N2CC[C@H]2C(=O)Nc2cccc(C)n2)c2ccc(NC(=O)N3CCCC(F)(F)C3)cc12 [Compound 205, (S)-N-(3-acetyl-1-(2-(2-((6-methylpyridin-2-yl)-carbamoyl)-azetidin-1-yl)-2-oxoethyl)-1H-indol-5-yl)-3,3-difluoropiperidine-1-carboxamide]	–
–	1000 to 10000	Cc1cccc(NC(=O)[C@@H]2[C@H]3CC[C@H](C3)N2C(=O)Cn2cc(C(N)=O)c3cc(C(=O)N4CCCC(F)(F)C4)ccc32)n1 [Compound 206, 5-(3,3-difluoropiperidine-1-carbonyl)-1-(2-((1R,3S,4S)-3-((6-methyl-pyridin-2-yl)-carbamoyl)-2-aza-bicyclo[2.2.1]heptan-2-yl)-2-oxoethyl)-1H-indole-3-carboxamide]	–
